Laboratory results from patent US5656604A, “Peptide compound and its preparation” (Fujisawa Pharmaceutical Co., Ltd., priority 1990, dated 1997).

Test system: rabbit thoracic aorta contraction induced by endothelin
Experimental: Thoracic aorta were isolated from freshly killed male albino rabbits (11 weeks old) and cut into 25 mm strips with the intima denuded. After removing fatty tissues, these arterial segments (2 mm width and 25 mm length) were suspended in 25 ml organ chambers filled with Krebs-Ringer solution (113 mM NaCl, 4.8 mM KCl, 2.2 mM CaCl2, 1.2 mM MgCl2, 25 mM NaHCO3, 1.2 mM KH2 PO4, 5.5 mM glucose) maintained at 37° C. and gassed with 95% O2 /5% CO2.
A preload of 0.5 g was applied after the aorta had been conditioned by application of increasing concentration of KCl. Contractions were measured as an increase in isometric tension.
Test Compound was tested against contractile response of rabbit aorta induced by endothelin (3.2×10^-9 M). […] Test Compound was added after the full contraction response induced by endothelin.

## CC(C)C[C@H](NC(=O)NC1CCCCC1)C(=O)N[C@H](Cc1cn(C)c2ccccc12)C(=O)N[C@H](Cc1ccccn1)C(=O)O [A]
  IC50: 230 nM
